Source: US5371071A, “Peptide and pseudopeptide compounds which are therapeutically active in the blood coagulation cascade” (Adir et Compagnie, priority 1992, dated 1994)

Assay: Anticoagulant activity ex vivo, prothrombin time
Type: in vivo, OFA rats
Settings: i.v.
Description: OFA rats, fasted or otherwise, are anesthetized with pentobarbital (60 mg/kg i.p.). The carotid and the jugular are exposed and catheterized. The catheters are flushed with citrated (1/40) physiological solution. After installation of the catheters, a sample of 1.5 cm^3 of arterial blood is withdrawn into 0.109M citrate (1/9).
30 minutes later, the test product is admini- stered i.v. in a volume of 1 ml.
Arterial blood samples (1.5 ml) are then withdrawn at 1 min 30 sec, 3 min, 5 min, 15 min, 30 min and 60 min.
As each sample is withdrawn, 1.5 ml of citrated physiological solution is reinjected into the animal via the carotid.
The blood tubes are centrifuged for 15 min at 4000 rpm (preparation of plasma).
100 μl of plasma are incubated with 200 μl of neoplastin calcium. The time of onset of the coagulation phenomenon is measured.

hirudin
duration of in vivo activity: 30 min
